Where “and” joins values, the source holds several entries; their conditions need not be identical. Equal values may be shown once.
Test system: STAT3 Phospho-Tyr705
Assay: NanoBiT pSTAT3 cell-based immunoassay in A431 cells
Set-up: species or system human
Conditions: IL-6 10 ng/ml; for P-STAT3 (% compared to no inhibitor): replicate
Method: Prior to NanoBiT Cell-Based Immunoassay, 50,000 cells were seeded in 160 µl of complete growth media per well of a 96-well plate and incubated overnight. […] If necessary, the cell culture media were replaced with serum-free media after the cells were stably adherent on the plate and incubated overnight. To treat cells with activators or inhibitors, medium was changed to 30 µl of medium containing inhibitors. If activation of a specific pathway is needed, the cells were stimulated with 10 µl of medium containing activators. To lyse the cells, 10 µl of lysis buffer containing 0.1% digitonin diluted in 1X immunoassay buffer with protease and phosphatase inhibitors was added and the plates were mixed vigorously for 20 min. Then, 50 µl of an antibody mix containing two primary antibodies against the target protein and NanoBiT detecting antibodies (0.3 µl each per well), diluted in 1X immunoassay buffer was added to the lysates. The plates were incubated at 23 °C for 90 min, followed by the addition of 25 µl of Nano-Glo® reagent consisting of Nano-Glo® Luciferase Assay Substrate mixed with 1X immunoassay buffer. Luminescence was measured using a plate-reading luminometer.
Single dose or dose response inhibitor treatments were performed prior to activation of the pathways as follows. For IκBα, the cells were treated in 30 µl medium with IKK16 or MG132 for 60 min before the addition of 10 µl of DMEM containing appropriate concentration of TNFα. To measure phosphorylation of AKT or STAT3, the corresponding NanoBiT immunoassays were developed with MCF-7 or A431 cells, respectively, according the same scheme used to develop the IκBα assay using the primary antibodies for AKT and STAT3 described in the reagents section. […] Treatment with LY294002 was performed in 30 µl medium and cells were incubated for 60 min before the addition of 1 µM Insulin. To measure STAT3 phosphorylation, A431 cells were incubated overnight in DMEM medium without serum. […] After addition of the stimulators, the cells were incubated for additional times as follows. IκBα phosphorylation and degradation analyses required both time courses and single time points as described in figures. […] The NanoBiT immunoassay protocol was followed as described above.
All 96-well assay plates were read using a GloMax® 96 Microplate Luminometer from Promega. The instrument was set to 0.5 s integration time. In order to obtain net change of signal, the reagent background values (signal from the well containing all reagent except primary antibodies) were subtracted from the sample values. To plot and analyze the data, Microsoft Excel and GraphPad Prism® Software were used. IC50 values were determined by using a nonlinear regression fit to a sigmoidal dose response (variable slope).

Structure (SMILES): CN(C)C(=O)/C(C#N)=C/c1ccc(-c2nc3cnc4[nH]ccc4c3n2C2CCCCC2)o1 [FM-381]
- P-STAT3 (% compared to no inhibitor) Average (inhibitor 0.0190735 nM): 105.1%
- P-STAT3 (% compared to no inhibitor) Average (inhibitor 0.038147 nM): 92.2%
- P-STAT3 (% compared to no inhibitor) Average (inhibitor 0.0762939 nM): 92.0%
- P-STAT3 (% compared to no inhibitor) Average (inhibitor 0.152588 nM): 93.2%
- P-STAT3 (% compared to no inhibitor) Average (inhibitor 0.305176 nM): 90.6%
- P-STAT3 (% compared to no inhibitor) Average (inhibitor 0.610352 nM): 92.3%
- P-STAT3 (% compared to no inhibitor) Average (inhibitor 1.2207 nM): 95.1%
- P-STAT3 (% compared to no inhibitor) Average (inhibitor 2.44141 nM): 87.8%
- P-STAT3 (% compared to no inhibitor) Average (inhibitor 4.88281 nM): 94.8%
- P-STAT3 (% compared to no inhibitor) Average (inhibitor 9.76562 nM): 88.5%
- P-STAT3 (% compared to no inhibitor) Average (inhibitor 19.5312 nM): 102.9%
- P-STAT3 (% compared to no inhibitor) Average (inhibitor 39.0625 nM): 94.1%
- P-STAT3 (% compared to no inhibitor) Average (inhibitor 78.125 nM): 88.7%
- P-STAT3 (% compared to no inhibitor) Average (inhibitor 156.25 nM): 85.8%
- P-STAT3 (% compared to no inhibitor) Average (inhibitor 312.5 nM): 74.2%
- P-STAT3 (% compared to no inhibitor) Average (inhibitor 625 nM): 60.8%
- P-STAT3 (% compared to no inhibitor) Average (inhibitor 2500 nM): 22.9%
- P-STAT3 (% compared to no inhibitor) Average (inhibitor 5000 nM): 12.0%
- P-STAT3 (% compared to no inhibitor) Average (inhibitor 10000 nM): 7.8%
- P-STAT3 (% compared to no inhibitor) Average (inhibitor […]): 41.3%
- P-STAT3 Raw data (inhibitor 0.0190735 nM): 278100 and 296300 and 285800
- P-STAT3 Subtract reagent background (inhibitor 0.0190735 nM): 177250 and 195450 and 184950
- P-STAT3 Raw data (inhibitor 0.038147 nM): 270700 and 268700 and 257500
- P-STAT3 Subtract reagent background (inhibitor 0.038147 nM): 168850 and 166850 and 155650
- P-STAT3 Raw data (inhibitor 0.0762939 nM): 272300 and 259800 and 258800
- P-STAT3 Subtract reagent background (inhibitor 0.0762939 nM): 172505 and 160005 and 159005
- P-STAT3 Raw data (inhibitor 0.152588 nM): 261700 and 262700 and 269600
- P-STAT3 Subtract reagent background (inhibitor 0.152588 nM): 162310 and 163310 and 170210
- P-STAT3 Raw data (inhibitor 0.305176 nM): 244400 and 266100 and 264700
- P-STAT3 Subtract reagent background (inhibitor 0.305176 nM): 145940 and 167640 and 166240
- P-STAT3 Raw data (inhibitor 0.610352 nM): 253900 and 276500 and 252400
- P-STAT3 Subtract reagent background (inhibitor 0.610352 nM): 156070 and 178670 and 154570
- P-STAT3 Raw data (inhibitor 1.2207 nM): 278300 and 261300 and 251600
- P-STAT3 Subtract reagent background (inhibitor 1.2207 nM): 184135 and 167135 and 157435
- P-STAT3 Raw data (inhibitor 2.44141 nM): 238200 and 252900 and 237300
- P-STAT3 Subtract reagent background (inhibitor 2.44141 nM): 150835 and 165535 and 149935
- P-STAT3 Raw data (inhibitor 4.88281 nM): 243400 and 259600 and 241900
- P-STAT3 Subtract reagent background (inhibitor 4.88281 nM): 162830 and 179030 and 161330
- P-STAT3 Raw data (inhibitor 9.76562 nM): 219800 and 245100 and 214000
- P-STAT3 Subtract reagent background (inhibitor 9.76562 nM): 149750 and 175050 and 143950
- P-STAT3 Raw data (inhibitor 19.5312 nM): 297400 and 269300 and 273700
- P-STAT3 Subtract reagent background (inhibitor 19.5312 nM): 172850 and 196550 and 168450
- P-STAT3 Raw data (inhibitor 39.0625 nM): 266500 and 275400 and 255500
- P-STAT3 Subtract reagent background (inhibitor 39.0625 nM): 153650 and 164650 and 173550
- P-STAT3 Raw data (inhibitor 78.125 nM): 243600 and 255500 and 264900
- P-STAT3 Subtract reagent background (inhibitor 78.125 nM): 165105 and 143805 and 155705
- P-STAT3 Raw data (inhibitor 156.25 nM): 244000 and 250600 and 253000
- P-STAT3 Subtract reagent background (inhibitor 156.25 nM): 153610 and 144610 and 151210
- P-STAT3 Raw data (inhibitor 312.5 nM): 227000 and 243200 and 212500
- P-STAT3 Subtract reagent background (inhibitor 312.5 nM): 114040 and 128540 and 144740
- P-STAT3 Raw data (inhibitor 625 nM): 189200 and 199400 and 224200
- P-STAT3 Subtract reagent background (inhibitor 625 nM): 126370 and 91370 and 101570
- P-STAT3 Raw data (inhibitor 2500 nM): 128000 and 133500 and 120100
- P-STAT3 Subtract reagent background (inhibitor 2500 nM): 32735 and 40635 and 46135
- P-STAT3 Raw data (inhibitor 5000 nM): 101000 and 109100 and 93870
- P-STAT3 Raw data (inhibitor 10000 nM): 84360 and 88520 and 77950
- P-STAT3 (% compared to no inhibitor) (inhibitor 0.0190735 nM): 88.0% and 120.5% and 106.8%
- P-STAT3 (% compared to no inhibitor) (inhibitor 0.038147 nM): 83.9% and 102.9% and 89.9%
- P-STAT3 (% compared to no inhibitor) (inhibitor 0.0762939 nM): 85.7% and 98.6% and 91.8%
- P-STAT3 (% compared to no inhibitor) (inhibitor 0.152588 nM): 80.6% and 100.7% and 98.3%
- P-STAT3 (% compared to no inhibitor) (inhibitor 0.305176 nM): 72.5% and 103.3% and 96.0%
- P-STAT3 (% compared to no inhibitor) (inhibitor 0.610352 nM): 77.5% and 110.1% and 89.2%
- P-STAT3 (% compared to no inhibitor) (inhibitor 1.2207 nM): 91.5% and 103.0% and 90.9%
- P-STAT3 (% compared to no inhibitor) (inhibitor 2.44141 nM): 74.9% and 102.0% and 86.6%
- P-STAT3 (% compared to no inhibitor) (inhibitor 4.88281 nM): 80.9% and 110.4% and 93.1%
- P-STAT3 (% compared to no inhibitor) (inhibitor 9.76562 nM): 74.4% and 107.9% and 83.1%
- P-STAT3 (% compared to no inhibitor) (inhibitor 19.5312 nM): 95.2% and 115.2% and 98.2%
- P-STAT3 (% compared to no inhibitor) (inhibitor 39.0625 nM): 84.6% and 96.5% and 101.2%
- P-STAT3 (% compared to no inhibitor) (inhibitor 78.125 nM): 90.9% and 84.3% and 90.8%
- P-STAT3 (% compared to no inhibitor) (inhibitor 156.25 nM): 84.6% and 84.8% and 88.2%
- P-STAT3 (% compared to no inhibitor) (inhibitor 312.5 nM): 62.8% and 75.3% and 84.4%
- P-STAT3 (% compared to no inhibitor) (inhibitor 625 nM): 69.6% and 53.6% and 59.2%
- P-STAT3 (% compared to no inhibitor) (inhibitor 2500 nM): 18.0% and 23.8% and 26.9%
- P-STAT3 (% compared to no inhibitor) (inhibitor 5000 nM): 7.3% and 12.0% and 16.6%
- P-STAT3 (% compared to no inhibitor) (inhibitor 10000 nM): 4.3% and 8.4% and 10.8%
